Measurements: US12544395B2, “Combination compositions comprising a beta-lactamase inhibitor and uses thereof” (priority 2018, dated 2026)

Columns and labels:
Type in all cases: cell-based
[1] = test system: K. pneumoniae 319478; test: Broth microdilution MIC (strain enzymes: SHV-12, CTX-M3 and TEM-1)
[2] = test system: K. pneumoniae ESBL 10; test: Broth microdilution MIC (strain enzymes: SHV-12, TEM-1)
[3] = test system: K. pneumoniae ESBL 7 #2; test: Broth microdilution MIC (strain enzymes: SHV-12, CTX-M15, TEM-1)
[4] = test system: E. coli BAS 1; test: Broth microdilution MIC (strain enzymes: none detected)
[5] = test system: K. pneumoniae KP 8; test: Broth microdilution MIC (strain enzymes: TEM-10, TEM-1, CTX-M15)
[6] = test system: E. coli ESBL 5; test: Broth microdilution MIC (strain enzymes: CTX-M15, TEM-1)

CCC(=O)N[C@H]1Cc2cccc(C(=O)O)c2OB1O [Compound 2, (R)-2-hydroxy-3-propionamido-3,4-dihydro-2H-benzo[e][1,2]oxaborinine-8-carboxylic acid]
MIC of cefalexin (LEX) ([1]; with inhibitor at 1 μg/mL): 4 µg/mL | MIC of cefdinir (CDR) ([1]; with inhibitor at 1 μg/mL): 4 µg/mL | MIC of cefixime (CFM) ([1]; with inhibitor at 1 μg/mL): 2 µg/mL | MIC of ceftibuten (CTB) ([1]; with inhibitor at 1 μg/mL): 0.125 µg/mL | MIC of cefalexin (LEX) ([1]; with inhibitor at 2 μg/mL): 2 µg/mL | MIC of cefdinir (CDR) ([1]; with inhibitor at 2 μg/mL): 2 µg/mL | MIC of cefixime (CFM) ([1]; with inhibitor at 2 μg/mL): 2 µg/mL | MIC of ceftibuten (CTB) ([1]; with inhibitor at 2 μg/mL): 0.25 µg/mL | MIC of cefalexin (LEX) ([1]; with inhibitor at 4 μg/mL): 2 µg/mL | MIC of cefdinir (CDR) ([1]; with inhibitor at 4 μg/mL): 2 µg/mL | MIC of cefixime (CFM) ([1]; with inhibitor at 4 μg/mL): 1 µg/mL | MIC of ceftibuten (CTB) ([1]; with inhibitor at 4 μg/mL): 0.125 µg/mL | MIC of cefalexin (LEX) ([2]; with inhibitor at 1 μg/mL): 1 µg/mL | MIC of cefdinir (CDR) ([2]; with inhibitor at 1 μg/mL): 1 µg/mL | MIC of cefixime (CFM) ([2]; with inhibitor at 1 μg/mL): 2 µg/mL | MIC of ceftibuten (CTB) ([2]; with inhibitor at 1 μg/mL): 0.25 µg/mL | MIC of cefalexin (LEX) ([2]; with inhibitor at 2 μg/mL): 1 µg/mL | MIC of cefdinir (CDR) ([2]; with inhibitor at 2 μg/mL): 1 µg/mL | MIC of cefixime (CFM) ([2]; with inhibitor at 2 μg/mL): 1 µg/mL | MIC of ceftibuten (CTB) ([2]; with inhibitor at 2 μg/mL): 0.25 µg/mL | MIC of cefalexin (LEX) ([2]; with inhibitor at 4 μg/mL): 0.5 µg/mL | MIC of cefdinir (CDR) ([2]; with inhibitor at 4 μg/mL): 0.5 µg/mL | MIC of cefixime (CFM) ([2]; with inhibitor at 4 μg/mL): 0.5 µg/mL | MIC of ceftibuten (CTB) ([2]; with inhibitor at 4 μg/mL): 0.25 µg/mL | MIC of cefalexin (LEX) ([3]; with inhibitor at 1 μg/mL): >32 µg/mL | MIC of cefdinir (CDR) ([3]; with inhibitor at 1 μg/mL): >32 µg/mL | MIC of cefixime (CFM) ([3]; with inhibitor at 1 μg/mL): 8 µg/mL | MIC of ceftibuten (CTB) ([3]; with inhibitor at 1 μg/mL): 4 µg/mL | MIC of cefalexin (LEX) ([3]; with inhibitor at 2 μg/mL): 32 µg/mL | MIC of cefdinir (CDR) ([3]; with inhibitor at 2 μg/mL): 32 µg/mL | MIC of cefixime (CFM) ([3]; with inhibitor at 2 μg/mL): 8 µg/mL | MIC of ceftibuten (CTB) ([3]; with inhibitor at 2 μg/mL): 2 µg/mL | MIC of cefalexin (LEX) ([3]; with inhibitor at 4 μg/mL): 16 µg/mL | MIC of cefdinir (CDR) ([3]; with inhibitor at 4 μg/mL): 16 µg/mL | MIC of cefixime (CFM) ([3]; with inhibitor at 4 μg/mL): 1 µg/mL | MIC of ceftibuten (CTB) ([3]; with inhibitor at 4 μg/mL): 1 µg/mL | MIC of cefalexin (LEX) ([4]; with inhibitor at 1 μg/mL): 1 µg/mL | MIC of cefdinir (CDR) ([4]; with inhibitor at 1 μg/mL): 1 µg/mL | MIC of cefixime (CFM) ([4]; with inhibitor at 1 μg/mL): 8 µg/mL | MIC of ceftibuten (CTB) ([4]; with inhibitor at 1 μg/mL): 1 µg/mL | MIC of cefalexin (LEX) ([4]; with inhibitor at 2 μg/mL): 1 µg/mL | MIC of cefdinir (CDR) ([4]; with inhibitor at 2 μg/mL): 1 µg/mL | MIC of cefixime (CFM) ([4]; with inhibitor at 2 μg/mL): 2 µg/mL | MIC of ceftibuten (CTB) ([4]; with inhibitor at 2 μg/mL): 1 µg/mL | MIC of cefalexin (LEX) ([4]; with inhibitor at 4 μg/mL): 2 µg/mL | MIC of cefdinir (CDR) ([4]; with inhibitor at 4 μg/mL): 2 µg/mL | MIC of cefixime (CFM) ([4]; with inhibitor at 4 μg/mL): 1 µg/mL | MIC of ceftibuten (CTB) ([4]; with inhibitor at 4 μg/mL): 0.5 µg/mL | MIC of cefalexin (LEX) ([5]; with inhibitor at 1 μg/mL): 0.25 µg/mL | MIC of cefdinir (CDR) ([5]; with inhibitor at 1 μg/mL): 0.25 µg/mL | MIC of cefixime (CFM) ([5]; with inhibitor at 1 μg/mL): 0.25 µg/mL | MIC of ceftibuten (CTB) ([5]; with inhibitor at 1 μg/mL): 0.06 µg/mL | MIC of cefalexin (LEX) ([5]; with inhibitor at 2 μg/mL): 0.125 µg/mL | MIC of cefdinir (CDR) ([5]; with inhibitor at 2 μg/mL): 0.125 µg/mL | MIC of cefixime (CFM) ([5]; with inhibitor at 2 μg/mL): 0.125 µg/mL | MIC of ceftibuten (CTB) ([5]; with inhibitor at 2 μg/mL): 0.03 µg/mL | MIC of cefalexin (LEX) ([5]; with inhibitor at 4 μg/mL): 0.125 µg/mL | MIC of cefdinir (CDR) ([5]; with inhibitor at 4 μg/mL): 0.125 µg/mL | MIC of cefixime (CFM) ([5]; with inhibitor at 4 μg/mL): 0.125 µg/mL | MIC of ceftibuten (CTB) ([5]; with inhibitor at 4 μg/mL): 0.03 µg/mL | MIC of cefalexin (LEX) ([6]; with inhibitor at 1 μg/mL): 8 µg/mL | MIC of cefdinir (CDR) ([6]; with inhibitor at 1 μg/mL): 8 µg/mL | MIC of cefixime (CFM) ([6]; with inhibitor at 1 μg/mL): 1 µg/mL | MIC of ceftibuten (CTB) ([6]; with inhibitor at 1 μg/mL): 0.25 µg/mL | MIC of cefalexin (LEX) ([6]; with inhibitor at 2 μg/mL): 2 µg/mL | MIC of cefdinir (CDR) ([6]; with inhibitor at 2 μg/mL): 2 µg/mL
